# From patent publication US5159081A, “Intermediates of peripherally selective N-carbonyl-3,4,4-trisubstituted piperidine opioid antagonists” (Eli Lilly and Company, priority 1991, dated 1992)
# Structures can show the parent of a compound that is named as a salt. Where two headings read alike, the source gives them in different places.
# Experiments:
# opioid receptor = molecular target: T1, opioid receptor (Mus musculus, UniProt P42866); test: in vivo; set-up: species or system CF-1 male mice; conditions: sc
# T1 construct: Five CF-1 male mice (Charles River, Portage, MI); from tissue; host or cells: living CF-1 male mice (whole animal, endogenous receptor)
# [1] = test system: peripheral opioid receptors; test: mouse diarrhea test: precipitated diarrhea in morphine-maintained mice (peripheral opioid activity); type: in vivo
# [2] = molecular target: peripheral opioid receptors (Mus musculus, UniProt P42866); test: as above; type: in vivo; conditions: mouse diarrhea test, morphine-maintained mice, subcutaneous or oral, 30 min observation
# mu receptor = molecular target: T2, mu receptor (Rattus norvegicus, UniProt P33535); test: Naloxone [3H] opioid receptor binding assay (mu receptor); set-up: species or system rat (male Sprague Dawley)
# T2 construct: The brain tissue, rat whole brain minus cerebellum for mu was homogenized; from tissue; host or cells: brain minus cerebellum of male Sprague Dawley rats, homogenate fraction
# [3] = mouse writhing test, […], s.c. 20 min before acetic acid, read-out: AD50 (the source's name)
# [4] = AD50 mouse writhing / ED50 mouse diarrhea, higher = greater relative peripheral antagonism
# [5] = 20 min, pH 7.4, 10 nM test compound, [3H]naloxone 0.5 nM, mu receptor, read-out: % displacement at 10 nM
# [6] = 20 min, pH 7.4, 100 nM test compound, [3H]naloxone 0.5 nM, mu receptor, read-out: % displacement at 100 nM
# [7] = 20 min, pH 7.4, read-out: % displacement at 10 nM
# [8] = 20 min, pH 7.4, read-out: % displacement at 100 nM
# [9] = […], rat whole brain minus cerebellum, [3H]naloxone 0.5 nM, pH 7.4, 37° C., 20 min, read-out: Ki
# T1 sequence (P42866 whole entry): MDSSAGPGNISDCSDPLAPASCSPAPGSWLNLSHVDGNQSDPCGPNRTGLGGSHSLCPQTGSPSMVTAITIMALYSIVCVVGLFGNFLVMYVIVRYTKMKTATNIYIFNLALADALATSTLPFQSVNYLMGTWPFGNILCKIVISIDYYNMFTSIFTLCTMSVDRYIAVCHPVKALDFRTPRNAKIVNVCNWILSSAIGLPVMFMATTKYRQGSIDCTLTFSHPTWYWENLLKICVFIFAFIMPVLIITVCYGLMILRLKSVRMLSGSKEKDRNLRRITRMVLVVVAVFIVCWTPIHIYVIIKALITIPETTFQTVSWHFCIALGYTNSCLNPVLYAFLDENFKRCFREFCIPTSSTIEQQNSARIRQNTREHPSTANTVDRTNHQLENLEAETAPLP
# Sequence of peripheral opioid receptors (Mus musculus, UniProt P42866) (P42866 whole entry): as above
# T2 sequence (P33535 whole entry): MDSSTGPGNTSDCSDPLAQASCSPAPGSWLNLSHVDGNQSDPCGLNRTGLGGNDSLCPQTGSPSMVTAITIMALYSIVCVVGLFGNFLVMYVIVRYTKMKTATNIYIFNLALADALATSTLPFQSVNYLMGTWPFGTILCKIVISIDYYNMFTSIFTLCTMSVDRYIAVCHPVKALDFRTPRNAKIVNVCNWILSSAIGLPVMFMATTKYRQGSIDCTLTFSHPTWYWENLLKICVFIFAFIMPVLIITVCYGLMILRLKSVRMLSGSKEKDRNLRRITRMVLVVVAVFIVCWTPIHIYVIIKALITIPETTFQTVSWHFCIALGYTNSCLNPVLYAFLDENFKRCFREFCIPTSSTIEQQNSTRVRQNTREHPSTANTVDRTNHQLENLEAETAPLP
Compound,ED50 (opioid receptor; [3]),"Ratio (ratio of AD50 to ED50) [1, 4]","ED50 ([2]; 0.5 h, read-out: ED50)",inhibition at 0.01 µM (mu receptor; [5]),inhibition at 0.1 µM (mu receptor; [6]),"Ratio (ratio of AD50 to ED50) ([1]; mouse, in vivo)",ED50 [2],inhibition at 0.01 µM (mu receptor; [7]),inhibition at 0.1 µM (mu receptor; [8]),Ki (mu receptor; [9]),"ED50 (opioid receptor; mouse writhing test, dose of antagonist that reduced inhibition of writhing by 1.25 mg/kg morphine sulfate to 50%, s.c. 20 min before acetic acid, read-out: AD50 (the source's name))","ED50 (opioid receptor; mouse, read-out: AD50)",Ki (mu receptor)
"C[C@H]1CN(CCN(C(=O)CCC(=O)O)C2CCCC2)CC[C@@]1(C)c1cccc(O)c1 (relative stereo) [Example 24, 4-(cyclopentyl-2-(trans-4-(3-hydroxyphenyl)-3,4-dimethyl-1-piperidinyl)ethyl)amino)-4-oxobutanoic acid hemihydrate]",19.2 mg/kg,31,0.62 mg/kg,48%,89%,,,,,,,,
"CCOC(=O)CC(=O)N[C@H](Cc1ccccc1)CN1CC[C@](C)(c2cccc(O)c2)[C@H](C)C1 [Example 12, Ethyl trans-3-((2-(4-(3-hydroxyphenyl)-3,4-dimethyl-1-piperidinyl)-1-(D-(phenylmethyl)ethyl)amino))-3-oxopropionate hydrochloride]",20 mg/kg,,,,,100,0.20 mg/kg,43%,87%,,,,
C[C@H]1CN(CCN(C(=O)CCC(=O)OCC2CCCCC2)C2CCCCC2)CC[C@@]1(C)c1cccc(O)c1 (relative stereo) [Example 73],9.2 mg/kg,54,0.17 mg/kg,46%,88%,,,,,,,,
C[C@H]1CN(C[C@H](CC2CCCCC2)NC(=O)CCCC(=O)O)CC[C@@]1(C)c1cccc(O)c1 [Example 45D],> 40 mg/kg,> 1379,,,,,0.029 mg/kg,82%,94%,0.56 nM,,,
"CCNC(=O)N[C@H](Cc1ccccc1)CN1CC[C@](C)(c2cccc(O)c2)[C@H](C)C1 [Example 17, N-Ethyl-N'-2-(D-(1-(trans-4-(3-hydroxyphenyl)-3,4-dimethyl-1-piperidinyl)-3-phenyl)propyl)urea hydrochloride monohydrate]",> 40 mg/kg,> 12,3.28 mg/kg,38%,82%,,,,,,,,
C[C@@H]1CN(C[C@H](CC2CCCCC2)NC(=O)CCCC(=O)O)CC[C@]1(C)c1cccc(O)c1 [Example 47D],> 40 mg/kg,> 4000,,,,,0.01 mg/kg,85%,95%,1.55 nM,,,
CCCOC(=O)CCCC(=O)N[C@@H](CC1CCCCC1)CN1CC[C@](C)(c2cccc(O)c2)[C@H](C)C1 [Example 53],> 40 mg/kg,> 38,,,,,1.06 mg/kg,50%,88%,,,,
CC(C)COC(=O)CCCC(=O)N[C@H](CC1CCCCC1)CN1CC[C@](C)(c2cccc(O)c2)[C@H](C)C1 [Example 58],> 40 mg/kg,> 235,0.17 mg/kg,0%,38%,,,,,,,,
"C[C@H]1CN(CCN(C(=O)CC(N)=O)C2CCCCC2)CC[C@@]1(C)c1cccc(O)c1 (relative stereo) [Example 34, N-Cyclohexyl-N-(2-(trans-4-(3-hydroxyphenyl)-3,4-dimethyl-1-piperidinyl)ethyl)propanediamidehydrochloride monohydrate]",8.2 mg/kg,21,0.39 mg/kg,77%,91%,,,,,,,,
COC1CCC(OC(=O)CCCC(=O)N[C@@H](CC2CCCCC2)CN2CC[C@@](C)(c3cccc(O)c3)[C@@H](C)C2)CC1 (some centres unmarked) [Example 68],18.8 mg/kg,65,0.29 mg/kg,68%,95%,,,,,,,,
CCCCCCCOC(=O)CCCC(=O)N[C@@H](CC1CCCCC1)CN1CC[C@@](C)(c2cccc(O)c2)[C@@H](C)C1 [Example 57],> 40 mg/kg,> 588,0.068 mg/kg,0%,9%,,,,,,,,
"C[C@@H]1CN(C[C@@H](Cc2ccccc2)NC(=O)CC(=O)O)CC[C@]1(C)c1cccc(O)c1 [Example 13, Trans-3-((2-(4-(3-hydroxyphenyl)-3,4-dimethyl-1-piperidinyl)-1-(D-(phenylmethyl)ethyl)amino))-3-oxopropionic acid monohydrate]",> 40 mg/kg,> 138,0.29 mg/kg,24%,72%,,,,,,,,
"CC(C)CC(=O)NC(CCCNC(=N)N[N+](=O)[O-])C(=O)NCCN1CCC(C)(c2cccc(O)c2)C(C)C1 (stereo not drawn) [Example 43, Trans-N-(2-(4-(3-hydroxyphenyl)-3,4-dimethyl-1-piperidinyl)ethyl)-2-((3-methyl-1-oxobutyl)amino)-5-((imino(nitroamino)methyl)amino) pentanamide]",> 10 mg/kg,> 10,< 1 mg/kg,59%,97%,,,,,,,,
CNC(=O)COC(=O)CCCC(=O)N[C@@H](CC1CCCCC1)CN1CC[C@@](C)(c2cccc(O)c2)[C@@H](C)C1 [Example 63],12 mg/kg,4000,,,,,0.003 mg/kg,87%,99%,2.13 nM,,,
"CC1CN(CCNC(=O)[C@H](CCCNC(=N)N[N+](=O)[O-])NC(=O)OC(C)(C)C)CCC1(C)c1cccc(O)c1 (stereo partly drawn) [Example 44, (1-(((2-(Trans-4-(3-hydroxyphenyl)-3,4-dimethyl-1-piperidinyl)ethyl)amino)carbonyl)-4-((imino(nitroamino)methyl)amino)butyl) carbamic acid, 1,1-dimethylethyl ester]",> 2 mg/kg,> 30,,,,,0.07 mg/kg,63%,85%,2.34 nM,,,
"C[C@H]1CN(C[C@@H](Cc2ccccc2)NC(=O)CC(=O)O)CC[C@@]1(C)c1cccc(O)c1 [Example 11, Trans-3-((2-(4-(3-hydroxyphenyl)-3,4-dimethyl-1-piperidinyl)-1-(D-(phenylmethyl)ethyl)amino))-3-oxopropionic acid]",12.4 mg/kg,41,0.3 mg/kg,36%,80%,,,,,,,,
COC(=O)CCCC(=O)N[C@@H](CC1CCCCC1)CN1CC[C@@](C)(c2cccc(O)c2)[C@@H](C)C1 [Example 50],20 mg/kg,357,,,,,0.056 mg/kg,87%,99%,3.24 nM,,,
CCOC(=O)CCCC(=O)N[C@@H](CC1CCCCC1)CN1CC[C@@](C)(c2cccc(O)c2)[C@@H](C)C1 [Example 52],28 mg/kg,1400,,,,,0.02 mg/kg,87%,96%,2.34 nM,,,
"C[C@H]1CN(CCC(NC(=O)C(CCCNC(=N)N[N+](=O)[O-])NC(=O)CCCC(=O)NCc2ccccc2)c2ccccc2)CC[C@@]1(C)c1cccc(O)c1 (single isomer, unassigned; (-)) [Example 8, (-)-N-(1-phenyl-3-(trans-4-(3-hydroxyphenyl)-3,4-dimethyl-1-piperidinyl)propyl)-2-((1,5-dioxo-5-(phenylmethyl)amino)pentyl)amino-5-((imino(nitroamino)methyl)-amino)pentanamide]",,> 2,,,,,0.64 mg/kg,95%,99%,0.68 nM,> 1.25 mg/kg,,
"CC(C)CC(CCN1CC[C@@](C)(c2cccc(O)c2)[C@@H](C)C1)NC(=O)CCCC(=O)O (some centres unmarked) [Example 4, 5-[[1-(2-methylpropyl)-3-[4-(3-hydroxyphenyl)-3,4-dimethyl-1-piperidinyl]propyl]amino]-5-oxopentanoic acid]",,,,,,250,0.07 mg/kg,86%,94%,,,17.5 mg/kg,1.41 nM
"CCOC(=O)CCCC(=O)N(CCN1CC[C@@](C)(c2cccc(O)c2)[C@@H](C)C1)C1CCCCC1 (relative stereo) [Example 32, 5-(Cyclohexyl-(2-(trans-4-(3-hydroxyphenyl)-3,4-dimethyl-1-piperidinyl)ethyl)amino)-5-oxopentanoic acid ethyl ester monohydrochloride]",9.4 mg/kg,59,0.16 mg/kg,40%,100%,,,,,,,,
"CCOC(=O)CCC(=O)NC(CCN1CC[C@@](C)(c2cccc(O)c2)[C@@H](C)C1)CC(C)C (some centres unmarked) [Example 2B, 4-[[1-[2-[4-(3-hydroxyphenyl)-3,4-dimethyl-1-piperidinyl]-ethyl]-3-methylbutyl)amino]-4-oxobutanoic acid ethyl ester]",10.2 mg/kg,54,,,,,0.19 mg/kg,93%,99%,1.2 nM,,,
